Measured values taken from patent publication US9066965B1, “Purified limonin glucoside for prevention and treatment of chronic diseases” (The United States of America, as represented by the …, priority 2012, dated 2015).

Experiments:
Format in all cases: in vivo, human
[1] = Complete blood cell count (hematological parameters); set-up: Monocytes / Eosinophil / Basophils / Platelets / WBC / Neutrophils / Lymphocytes: unit not given here
Protocol: Complete and differential cell counts were performed at the hematology laboratory of University of California Medical Center (UCDMC), Sacramento using Beckman Coulter LH 700.
(§1) Results are presented as means±SEM.

[2] = Serum/plasma concentrations of inflammatory markers
Protocol: (§2) Plasma concentrations of epidermal growth factor (EGF), interleukin-13 (IL-13), interleukin-1 receptor antagonist (IL-1Ra), and tumor necrosis factor α (TNF α) were analyzed in EDTA plasma on a Sector Imager 2400 instrument using a multiplex kits from MSD (Meso-Scale Discovery, Gaithersburg, Md.). Concentrations of C reactive protein (CRP), and complement 3 and 4 (C3, C4) were analyzed in serum by using an Integra 400 Plus Chemistry Analyzer, (Roche Diagnostics Corp., Indianapolis, Ind.). Serum amyloid A (SAA), soluble intracellular adhesion molecule-1 (sICAM-1), and soluble vascular cell adhesion molecule-1 (sVCAM-1) were tested in serum on a Sector Imager 2400 instrument using a multiplex kit from MSD (Meso-Scale Discovery, Gaithersburg, Md.).
as §1

[3] = system: complement fraction 3 (C3); experiment: Serum C3 concentration (Integra 400 Plus)
Protocol: as §2, §1

Complement 3 = experiment: Plasma complement 3 in MAP 1.6
Protocol: Plasma samples prepared from blood collected in EDTA-containing tubes were stored at −80° C. until tested. The samples were thawed at room temperature, vortexed, spun at 13,000×g for 5 minutes for clarification and 100 uL aliquots were removed for MAP analysis into a master microtiter plate. Using automated pipetting, an aliquot of each sample was introduced into one of the capture microsphere multiplexes of the Human MAP 1.6. This MAP comprised of 89 antigens that included markers for oxidative stress, inflammation, immune status, T2DM, CVD, blood clotting, cancer, liver and kidney functions. All plasma samples were tested in duplicate. The mixture of sample and capture microspheres were thoroughly mixed and incubated at room temperature for 1 hour. Multiplexed cocktails of biotinylated, reporter antibodies for each multiplex were then added robotically and after thorough mixing, were incubated for an additional hour at room temperature. […] Testing results were determined first for the high, medium and low controls for each multiplex to ensure proper assay performance. Unknown values for each of the analytes localized in a specific multiplex were determined using 4 and 5 parameter, weighted and non-weighted curve fitting algorithms included in the data analysis package. […]

[4] = system: prostate specific antigen (PSA); experiment: Plasma free prostate specific antigen in MAP 1.6; conditions: for decrease of plasma free PSA concentration: vs placebo, n=5
Protocol: Plasma samples prepared from blood collected in EDTA-containing tubes were stored at −80° C. until tested. The samples were thawed at room temperature, vortexed, spun at 13,000×g for 5 minutes for clarification and 100 uL aliquots were removed for MAP analysis into a master microtiter plate. Using automated pipetting, an aliquot of each sample was introduced into one of the capture microsphere multiplexes of the Human MAP 1.6. This MAP comprised of 89 antigens that included markers for oxidative stress, inflammation, immune status, T2DM, CVD, blood clotting, cancer, liver and kidney functions. All plasma samples were tested in duplicate. The mixture of sample and capture microspheres were thoroughly mixed and incubated at room temperature for 1 hour. Multiplexed cocktails of biotinylated, reporter antibodies for each multiplex were then added robotically and after thorough mixing, were incubated for an additional hour at room temperature. Multiplexes were developed using an excess of streptavidin-phycoerythrin solution which was thoroughly mixed into each multiplex and incubated for 1 hour at room temperature. The volume of each multiplexed reaction was reduced by vacuum filtration and the volume increased by dilution into matrix buffer for analysis. Analysis was performed in a Luminex 100 instrument and the resulting data stream was interpreted using proprietary data analysis software developed at Rules-Based Medicine. For each multiplex, both calibrators and controls were included on each microtiter plate. 8-point calibrators were run in the first and last column of each plate and 3-level controls were included in duplicate. Testing results were determined first for the high, medium and low controls for each multiplex to ensure proper assay performance. Unknown values for each of the analytes localized in a specific multiplex were determined using 4 and 5 parameter, weighted and non-weighted curve fitting algorithms included in the data analysis package. The intra-sample coefficient of variance (CV) for all antigens with concentrations above the lowest detectable dose (LDD) was less than 20%, and was less than 10% for more than 50% of the antigens tested.
as §1

[5] = Adverse effects and tolerability of the LG drink
Text: A total of 11 adverse events were reported by 6 subjects for the entire duration of the study (data not shown). Some of these events such as volunteer hurting their back or hand were definitely unrelated to the drinks, while others like a weird taste, dry throat seem related to the drinks, still others such as mild cold or frequent urinating, or rash on chest may or may not be related to the drinks. […] Since the placebo was also the carrier of LG, all adverse events may be due to the placebo drinks.

[6] = End LG, 500 mg/d, 56 days, n = 10, mean ± SEM
[7] = EDTA plasma, End LG, 500 mg/d, 56 days, n = 10, mean ± SEM
[8] = serum, End LG, 500 mg/d, 56 days, n = 10, mean ± SEM

CC1(C)O[C@H]2CC(=O)OC[C@]23[C@H]2CC[C@@](C)([C@@H](O[C@@H]4O[C@H](CO)[C@@H](O)[C@H](O)[C@H]4O)c4ccoc4)[C@@]4(O[C@@H]4C(=O)O)[C@]2(C)C(=O)C[C@@H]13 [LG, limonin glucoside]
Basophils [1, 6]: 0.03 ± 0.00 | Basophils, % of WBC [1, 6]: 0.47 ± 0.04 % of WBC | Eosinophil [1, 6]: 0.18 ± 0.03 | Eosinophil, % of WBC [1, 6]: 3.32 ± 0.52 % of WBC | Hematocrit [1, 6]: 41.47 ± 1.00% | Hemoglobin [1, 6]: 13.94 ± 0.61 g/dL | Lymphocytes [1, 6]: 1.80 ± 0.14 | Lymphocytes, % of WBC [1, 6]: 33.01 ± 2.09 % of WBC | MCH [1, 6]: 31.08 ± 0.39 pico grams | MCHC [1, 6]: 33.98 ± 0.16% | MCV [1, 6]: 91.44 ± 1.29 microns | Monocytes [1, 6]: 0.42 ± 0.03 | Monocytes, % of WBC [1, 6]: 7.79 ± 1.03 % of WBC | Neutrophils [1, 6]: 3.14 ± 0.30 | Neutrophils, % of WBC [1, 6]: 55.41 ± 3.16 % of WBC | Platelets [1, 6]: 229.00 ± 12.74 | RBC [1, 6]: 4.54 ± 0.13 × 10^−12/L | RDW [1, 6]: 13.12 ± 0.13% | WBC [1, 6]: 5.55 ± 0.38 | pH [1, 6]: 6.75 ± 0.27 | effect on hematological variables ([1]; vs end of placebo treatment, baseline as covariate): did not alter | EGF [2, 7]: 106.02 ± 52.55 pg/mL | IL-1Ra [2, 7]: 194.93 ± 27.03 pg/mL | IL-13 [2, 7]: 2.42 ± 0.27 pg/mL | TNF a [2, 7]: 0.58 ± 0.20 pg/mL | C4 [2, 8]: 0.29 ± 0.02 mg/mL | CRP [2, 8]: 1.64 ± 0.25 µg/mL | SAA [2, 8]: 4.06 ± 0.77 µg/mL | sICAM-1 [2, 8]: 0.25 ± 0.02 µg/mL | sVCAM-1 [2, 8]: 0.41 ± 0.04 µg/mL | effect on plasma EGF, IL-13, IL-1Ra, TNF α and serum CRP, SAA, sICAM-1, sVCAM-1, C4 ([2]; vs end of placebo treatment): not altered | C3 [3, 8]: 1.18 ± 0.05 mg/mL | decrease of serum C3 concentration ([3]; vs end of placebo treatment, Integra 400 Plus, p=0.055): 4.8% | Complement 3 (Complement 3; plasma, End LG, 500 mg/d, 56 days, n = 10, mean ± SEM): 1.17 ± 0.05 mg/mL | decrease of plasma C3 concentration (Complement 3; vs end of placebo treatment, p=0.014): 6.4% | subjects in whom free PSA concentration was reduced ([4]; 5 men, 5 women): all men and 3 women | Prostate-Specific Antigen, Free ([4]; plasma, MAP 1.6, End LG, 500 mg/d, 56 days, n = 10, mean ± SEM): 0.31 ± 0.11 ng/mL | decrease of plasma free PSA concentration ([4]; men, p=0.059): 14.5% | decrease of plasma free PSA concentration ([4]; women, p=0.309): 22.9% | effect on parameters of CBC, CMP and MAP 1.6 ([5]; 500 mg/d, 56 days): did not adversely affect | serious adverse effects ([5]; 500 mg/d, 56 days): did not have any serious adverse effects | tolerability ([5]; 500 mg/d, 56 days): well tolerated | adverse events reported while taking the drink ([5]; out of the 11 adverse events of the study, 7 on placebo drinks): 4
